Laboratory results: patent US9682960B2 (priority 2013, dated 2017)
Like-named read-outs stand apart in the source and are kept apart here.

Key:
Human Androgen Receptor = Human Androgen Receptor (Homo sapiens (Human), UniProt P10275); assay: Androgen receptor assay: [3H]R1881 displacement, cytosol of HEK-293 cells transfected with hAR (hydroxylapatite assay); type: binding; conditions: for Human Androgen Receptor Binding RBA (%) R1881 = 100: relative binding affinity; for times more potent than OH-flutamide on the human AR (RBA ratio): versus hydroxyflutamide
Human Androgen Receptor, sequence (P10275 whole entry): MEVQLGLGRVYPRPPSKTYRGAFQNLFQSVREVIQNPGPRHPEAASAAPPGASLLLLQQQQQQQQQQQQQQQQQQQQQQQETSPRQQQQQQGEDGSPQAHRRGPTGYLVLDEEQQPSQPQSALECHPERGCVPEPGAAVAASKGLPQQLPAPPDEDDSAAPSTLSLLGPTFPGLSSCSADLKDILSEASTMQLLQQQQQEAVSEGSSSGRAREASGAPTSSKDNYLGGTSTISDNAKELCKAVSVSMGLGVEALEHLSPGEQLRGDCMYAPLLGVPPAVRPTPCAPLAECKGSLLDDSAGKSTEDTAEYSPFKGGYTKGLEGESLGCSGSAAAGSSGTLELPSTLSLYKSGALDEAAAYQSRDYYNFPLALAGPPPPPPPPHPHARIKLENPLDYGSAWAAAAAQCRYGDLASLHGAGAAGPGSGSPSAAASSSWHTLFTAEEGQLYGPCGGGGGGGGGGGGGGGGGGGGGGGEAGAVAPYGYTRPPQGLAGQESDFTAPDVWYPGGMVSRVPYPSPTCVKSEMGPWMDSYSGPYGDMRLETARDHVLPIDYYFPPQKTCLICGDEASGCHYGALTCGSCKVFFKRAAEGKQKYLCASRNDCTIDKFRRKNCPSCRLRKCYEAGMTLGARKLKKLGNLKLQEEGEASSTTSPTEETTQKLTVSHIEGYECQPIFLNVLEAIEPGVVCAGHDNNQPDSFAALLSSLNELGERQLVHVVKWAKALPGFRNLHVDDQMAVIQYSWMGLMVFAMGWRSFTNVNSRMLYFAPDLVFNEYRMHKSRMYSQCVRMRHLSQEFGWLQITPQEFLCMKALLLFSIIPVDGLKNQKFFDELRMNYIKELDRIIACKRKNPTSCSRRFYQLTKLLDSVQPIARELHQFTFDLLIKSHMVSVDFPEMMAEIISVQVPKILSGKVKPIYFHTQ

[1] = tested on: Shionogi mouse mammary carcinoma cells; assay: In vitro androgenic/antiandrogenic activity: proliferation of Shionogi cells with or without DHT; type: cell-based; conditions: for stimulation at 10^−7M on basal Shionogi cell proliferation (in words): basal (no DHT); for fold more potent than OH-flutamide in reversing DHT-stimulated Shionogi cell proliferation: versus hydroxyflutamide
[2] = Mus musculus, read-out: Shionogi Antiandrogenic Activity IC50, DHT (0.3 nM)-stimulated cell number
[3] = read-out: Shionogi Antiandrogenic Activity IC50, DHT (0.3 nM)-stimulated cell number

Row | Compound | Human Androgen Receptor Binding RBA (%) R1881 = 100 (Human Androgen Receptor; […]) | IC50 [1, 2] | Human Androgen Receptor Binding RBA (%) R1881 = 100 (Human Androgen Receptor; transfected cells) | also measured
1 | Cc1ccc(-c2ccc(OCCCN3C(=S)N(c4ccc(C#N)c(C(F)(F)F)c4)C(=O)C3(C)C)cc2)cn1 [EM-8908] | 944 ± 265 (n = 2) % | 0.05 µM | – | –
2 | CC1(C)C(=O)N(c2ccc(C#N)c(C(F)(F)F)c2)C(=S)N1CCCOc1ccc(-c2ccnc(F)c2)cc1 [EM-8923] | – | 0.048 µM | 136% | –
3 | CC1(C)C(=O)N(c2ccc(C#N)c(C(F)(F)F)c2)C(=S)N1CCCOc1ccc(-c2cc[n+]([O-])cc2)cc1 [EM-8929] | – | – | 100 ± 12 (n = 2) % | IC50 [1, 3]: 0.017 ± 0.01 µM
4 | CC1(C)C(=O)N(c2ccc(C#N)c(C(F)(F)F)c2)C(=O)N1CCCOc1ccc(-c2cc[n+]([O-])cc2)cc1 [EM-9000] | 1.5 ± 0.3 (n = 2) % | 0.02 ± 0.01 µM | – | –
5 | CC1(C)C(=O)N(c2ccc(C#N)c(F)c2)C(=S)N1CCCOc1ccc(-c2ccncc2)c(F)c1 [EM-9011] | – | 0.0066 ± 0.0008 µM | 43 ± 9 (n = 2) % | –
6 | CC1(C)C(=O)N(c2ccc(C#N)c(F)c2)C(=S)N1CCCOc1ccc(-c2ccncc2)cc1 [EM-9025] | – | – | 39% | stimulation at 10^−7M on basal Shionogi cell proliferation (in words) [1]: none of these compounds has any activity
7 | CC1(C)C(=O)N(c2ccc(C#N)c(Cl)c2)C(=S)N1CCCOc1ccc(-c2ccncc2)c(F)c1 [EM-9037] | – | 0.0087 µM | 1040 ± 350 (n = 2) % | –
8 | CC1(C)C(=O)N(c2ccc(C#N)c(Cl)c2)C(=S)N1CCCOc1ccc(-c2ccncc2)cc1 [EM-9039] | 762 ± 396 (n = 2) % | 0.0026 to 0.0043 µM | – | stimulation at 10^−7M on basal Shionogi cell proliferation (in words) [1]: none of these compounds has any activity; IC50 [1, 3]: 0.0043 µM
9 | CC1(C)C(=O)N(c2ccc(C#N)c(C(F)(F)F)c2)C(=S)N1CCCOc1ccc(-c2cc[n+]([O-])cc2)cc1.Cl [EM-9043] | 175% | – | – | stimulation at 10^−7M on basal Shionogi cell proliferation (in words) [1]: none of these compounds has any activity; IC50 [1, 3]: 0.0034 µM
10 | CC1(C)C(=O)N(c2ccc(C#N)c(Cl)c2)C(=S)N1CCCOc1ccc(-c2cccnc2)cc1 [EM-9049] | 269% | 0.0068 µM | – | –
11 | CC1(C)C(=O)N(c2ccc(C#N)c(C(F)(F)F)c2)C(=S)N1CCCOc1ccc(-c2ccncc2)cn1 [EM-9050] | 317 ± 122 (n = 2) % | 0.012 ± 0.002 µM | – | –
12 | CC1(C)C(=O)N(c2ccc(C#N)c(C(F)(F)F)c2)C(=O)N1CCCOc1ccc(-c2ccncc2)cc1F [EM-9055] | – | 0.0106 µM | 7.3% | –
13 | CC1(C)C(=O)N(c2ccc(C#N)c(C(F)(F)F)c2)C(=O)N1CCCOc1ccc(-c2ccncc2)c(F)c1 [EM-9066] | – | 0.011 ± 0.004 µM | 10.3 ± 1.3 (n = 2) % | –
14 | CC1(C)C(=O)N(c2ccc(C#N)c(C(F)(F)F)c2)C(=O)N1CCCOc1ccc(-c2cc[n+]([O-])cc2)c(F)c1 [EM-9067] | – | 0.012 µM | 2.4% | –
15 | CC1(C)C(=O)N(c2ccc(C#N)c(C(F)(F)F)c2)C(=S)N1CCCCOc1ccc(-c2cccnc2)cc1 [EM-9070] | – | 0.0149 µM | 191% | –
16 | CC1(C)C(=O)N(c2ccc(C#N)c(C(F)(F)F)c2)C(=O)N1CCCOc1ccc(-c2ccncc2)c(C(F)(F)F)c1 [EM-9089] | – | 0.049 µM | 2.0% | –
17 | CC1(C)C(=O)N(c2ccc(C#N)c(C(F)(F)F)c2)C(=S)N1CCCOc1ccc(-c2ccncc2)nc1 [EM-9092] | – | 0.0112 µM | 72% | –
18 | CC1(C)C(=O)N(c2ccc(C#N)c(C(F)(F)F)c2)C(=O)N1CCCOc1ccc(-c2ccncc2)nc1 [EM-9111] | 1.0 ± 0.0 (n = 2) % | 0.019 µM | – | –
19 | CC1(C)C(=O)N(c2ccc(C#N)c(C(F)(F)F)c2)C(=O)N1CCCOc1ccc(-c2ccncc2)cn1 [EM-9114] | 7.9 ± 4.1 (n = 3) % | 0.0192 ± 0.0003 µM | – | –
20 | CC1(C)C(=O)N(c2ccc(C#N)c(Cl)c2)C(=O)N1CCCOc1ccc(-c2ccncc2)c(F)c1 [EM-9115] | 12.5 ± 2.3 (n = 6) % | 0.018 ± 0.004 µM | – | –
21 | CC1(C)C(=O)N(c2ccc(C#N)c(Cl)c2)C(=O)N1CCCOc1ccc(-c2cc[n+]([O-])cc2)c(F)c1 [EM-9117] | 2.5 ± 0.5 (n = 5) % | 0.031 ± 0.01 µM | – | –
22 | CC1(C)C(=O)N(c2ccc(C#N)c(Cl)c2)C(=O)N1CCCOc1ccc(-c2cc[n+]([O-])cc2)cc1 [EM-9118] | 2.2 ± 0.4 (n = 6) % | 0.015 ± 0.003 µM | – | –

Row | Compound | Human Androgen Receptor Binding RBA (%) R1881 = 100 (Human Androgen Receptor; […]) | IC50 [1, 2] | Human Androgen Receptor Binding RBA (%) R1881 = 100 (Human Androgen Receptor; transfected cells) | also measured
23 | CC1(C)C(=O)N(c2ccc(C#N)c(Cl)c2)C(=S)N1CCCOc1ccc(-c2cc[n+]([O-])cc2)c(F)c1 [EM-9119] | 122% | 0.0121 ± 0.0005 µM | – | –
24 | CC1(C)C(=O)N(c2ccc(C#N)c(Cl)c2)C(=S)N1CCCOc1ccc(-c2cc[n+]([O-])cc2)cc1 [EM-9120] | 106% | 0.0092 ± 0.0008 µM | – | –
25 | CC1(C)C(=O)N(c2ccc(C#N)c(C(F)(F)F)c2)CC(=O)N1CCCOc1ccc(-c2ccncc2)cc1 [EM-9126] | <0.1% | 0.173 µM | – | –
26 | CC1(C)C(=O)N(c2ccc(C#N)c(F)c2)C(=O)N1CCCOc1ccc(-c2cc[n+]([O-])cc2)cc1 [EM-9176] | – | > 0.1 µM | ~0.1% | –
27 | CC1(C)C(=O)N(c2ccc(C#N)c(C(F)(F)F)c2)C(=O)N1CCOc1ccc(-c2cc[n+]([O-])cc2)cc1 [EM-9180] | – | 0.024 µM | 1.7% | –
28 | CC1(C)C(=O)N(c2ccc(C#N)c(Cl)c2)C(=O)N1CCCOc1ccc(-c2ccncc2)cc1F [EM-9198] | 22% | 0.0053 µM | – | times more potent than OH-flutamide on the human AR (RBA ratio) (Human Androgen Receptor): 105 times; fold more potent than OH-flutamide in reversing DHT-stimulated Shionogi cell proliferation [1]: 6.4 fold
29 | CC1(C)C(=O)N(c2ccc(C#N)c(C(F)(F)F)c2)C(=O)N1Cc1ccc(-c2ccncc2)cc1 [EM-9199] | – | 0.027 µM | 2.3% | –
30 | CC1(C)C(=O)N(c2ccc(C#N)c(C(F)(F)F)c2)C(=O)N1Cc1ccc(-c2cccnc2)cc1 [EM-9200] | – | 0.066 µM | 2.5% | –
31 | N#Cc1ccc(N2C(=O)N(CCCOc3ccc(-c4ccncc4)c(F)c3)C3(CCCC3)C2=O)cc1Cl [EM-9201] | 70.8% | 0.0097 µM | – | –
32 | Cc1c(N2C(=O)N(CCCOc3ccc(-c4ccncc4)c(F)c3)C(C)(C)C2=O)ccc(C#N)c1F [EM-9205] | – | 0.0148 µM | 17.9% | times more potent than OH-flutamide on the human AR (RBA ratio) (Human Androgen Receptor): 85 times; fold more potent than OH-flutamide in reversing DHT-stimulated Shionogi cell proliferation [1]: 2.3 fold
33 | Cc1cc(OCCCN2C(=O)N(c3ccc(C#N)c(Cl)c3)C(=O)C2(C)C)ccc1-c1cc[n+]([O-])cc1 [EM-9221] | 2.7% | 0.0106 µM | – | –
34 | CC1(C)C(=O)N(c2ccc(C#N)c(Cl)c2)C(=O)N1CCCOc1ccc(-c2cc[n+]([O-])cc2)cc1F [EM-9226] | 2.4% | 0.023 µM | – | –
35 | CC1(C)C(=O)N(c2ccc(C#N)c(C(F)(F)F)c2)C(=O)N1Cc1ccc(-c2ccncc2)c(F)c1 [EM-9227] | 4.9% | 0.0164 µM | – | –
36 | CC1(C)C(=O)N(c2ccc(C#N)c(C(F)(F)F)c2)C(=O)N1Cc1ccc(-c2cc[n+]([O-])cc2)c(F)c1 [EM-9228] | 0.4% | 0.053 µM | – | –
37 | COc1cc(-c2ccncc2)ccc1OCCCN1C(=O)N(c2ccc(C#N)c(Cl)c2)C(=O)C1(C)C [EM-9261] | 2.5% | 0.027 µM | – | –
38 | CC1(C)C(=O)N(c2ccc(C#N)c(Cl)c2)C(=O)N1CCCOc1ccc(-c2ccncc2F)cc1 [EM-9267] | – | 0.016 µM | 5.5% | –
39 | CC1(C)C(=O)N(c2ccc(C#N)c(C(F)(F)F)c2)C(=O)N1c1ccc(-c2ccncc2)cc1 [EM-9340] | – | – | 0.2% | IC50 ([1]; Mus musculus, DHT (0.3 nM)-stimulated cell number, read-out: Shionogi Antiandrogenic Activity IC50): 0.126 µM
40 | Cc1c(N2C(=O)N(c3ccc(-c4cccnc4)cc3)C(C)(C)C2=O)ccc(C#N)c1C(F)(F)F [EM-9342] | – | 0.066 µM | 0.4% | –
41 | Cc1c(N2C(=O)N(Cc3ccc(-c4ccncc4)cc3)C(C)(C)C2=O)ccc(C#N)c1Cl [EM-9343] | 6.1% | 0.021 µM | – | –
42 | Cc1c(N2C(=O)N(c3ccc(-c4ccncc4)cc3)C(C)(C)C2=O)ccc(C#N)c1C(F)(F)F [EM-9344] | 0.8% | 0.051 µM | – | –
43 | Cc1c(N2C(=O)N(Cc3ccc(-c4cc[n+]([O-])cc4)cc3)C(C)(C)C2=O)ccc(C#N)c1Cl [EM-9345] | – | ~0.08 µM | 0.5% | –
